The values below come from paper PMC9204602, “Optimized Anchor-Modified Peptides Targeting Mutated RAS Are Promising Candidates for Immunotherapy” (Frontiers in Immunology, 2022).

No end group written: not given here.

The first assay concerns the target HLA-A*02:01 (Homo sapiens, UniProt P04439, D140Y/D185E/D98H/E176V/E277Q/G131W/G231S/I119V/I121R/I166T/I218V/L300P/L318F/N151K/N90K/P208A/P217A/Q86G/Q94H/R138H/R169H/T345S). The assay can be described thus: MHC-I stabilization assay, TAP-deficient T2 cells. In kind it is binding.
Conditions: not given
Compound KLVVVGASGV registered an EC50 of 72 µM.

The compound YLVVGASGV came in with an EC50 of 21.2 µM.

The compound LVVVGARGV had an EC50 of 429 µM.

In the case of KLVVVGARGV, the 50% effective concentration (EC50) is 151 µM.

The compound LVVVGASGV registered an EC50 of 581 µM.

Compound `CC(C)C[C@H](NC(=O)[C@@H](N)CCCCN)C(=O)N[C@H](C(=O)N[C@H](C(=O)N[C@H](C(=O)NCC(=O)N[C@@H](C)C(=O)N[C@@H](C)C(=O)NCC(=O)N[C@H](C(=O)O)C(C)C)C(C)C)C(C)C)C(C)C` returned an EC50 of 50.2 µM.

The compound YLVVGARGV showed an EC50 of 15.6 µM.

Staying with this assay, now noted: Table 1; T2 cells, HLA-A*02:01 stabilization, serum-free RPMI, 4 hours, 37°C, peptide from 100 µM in at least 8 serial dilution steps, flow cytometry MFI (BB7.2); half-maximal MFI; analyzed three times, mean; read-out: EC50 (µM) Binding assay.
As for LVVVGAAGV, the EC50 came out at 191 µM.

Turning to YLVVGAAGV, the EC50 was 16.4 µM.

Consider YLVVVGAVGV, for which the concentration giving a half-maximal response (EC50) is 15.5 µM.

As to LVVVGACGV, the EC50 was 619 µM.

Regarding YLVVGAVGV, the concentration giving a half-maximal response (EC50) stood at 22.9 µM.

On to YLVVGADGV, for which the EC50 came to 13.4 µM.

LLVVGASGV: the 50% effective concentration (EC50) is 90.6 µM.

Regarding YLVVVGAAGV, the EC50 stood at 27.7 µM.

Turning to YLVVVGASGV, the EC50 is 10.7 µM.

YLVVVGADGV: the half-maximal effective concentration (EC50) was found to be 5.68 µM.

Consider LLVVGADGV, for which the EC50 was 83.4 µM.

YVVVGAVGV: the concentration for a half-maximal effect (EC50) amounted to 28.3 µM.

For YVVVGASGV, the EC50 came out at 207 µM.

With YVVVGACGV, the EC50 is 138 µM.

As to LLVVGAAGV, the EC50 was 17.5 µM.

Consider LVVVGADGV, for which the EC50 was 453 µM.

For LLVVGACGV, the EC50 is 73.5 µM.

For the compound LLVVGARGV, the 50% effective concentration (EC50) came out at 23.7 µM.

As for YVVVGADGV, the 50% effective concentration (EC50) was 199 µM.

Consider YVVVGAAGV, for which the EC50 worked out at 117 µM.

Consider YLVVVGACGV, for which the EC50 turned out to be 95.5 µM.

Turning to LLVVGAVGV, the EC50 was 25.6 µM.

Regarding YVVVGARGV, the half-maximal effective concentration (EC50) is 51.6 µM.

Regarding YLVVGACGV, the EC50 is 26.1 µM.

For the next assay, the target named is HLA-A*03:01 (Homo sapiens, UniProt P04439).
Assay: not given
In kind it is binding.
Conditions: not given
On to VVGAAGVGK, for which the EC50 was 277 µM.

In turn, `CC[C@H](C)[C@H](N)C(=O)N[C@@H](CC(C)C)C(=O)N[C@@H](CCCNC(=N)N)C(=O)NCC(=O)N[C@@H](CO)C(=O)N[C@H](C(=O)N[C@@H](C)C(=O)N[C@@H](Cc1c[nH]cn1)C(=O)N[C@@H](CCCCN)C(=O)O)C(C)C` [Flu-NP 265-273, reference compound] showed an EC50 of 6.33 µM.

For the compound VVVGARGVGK, the EC50 came out at 69.7 µM.

Take VVVGAAGVGK: the EC50 was 94 µM.

The target in the next assay is HLA-A*11:01 (Homo sapiens, UniProt P04439, A114D/D185E/E176A/F33Y/L180Q/S129P/T187R). As to the kind of experiment: Cell-based competitive MHC-I-binding assay, CJO-A lymphoblastoid cells.
Conditions: not given
Compound VVGAAGVGK displayed an IC50 of 1.12e-05 M.

As for `CC[C@H](C)[C@H](NC(=O)[C@@H](N)CO)C(=O)N[C@H](C(=O)N1CCC[C@H]1C(=O)N[C@@H](CO)C(=O)NCC(=O)N1CCC[C@H]1C(=O)N[C@@H](CC(C)C)C(=O)N[C@@H](CCCCN)C(=O)O)[C@@H](C)CC` [Flu-MP 13-21, reference compound], the IC50 was 1.44e-06 M.

For VVVGARGVGK, the IC50 was found to be 4.61e-05 M.

As for VVVGAAGVGK, the IC50 worked out at 7.03e-06 M.

The same assay, now with this note: Table S2; […], competition with 500 nM FITC-labelled KVFPK(FITC)ALINK, serum-free RPMI, 4 hours, 37°C, peptide from 100 µM, flow cytometry; analyzed three times, mean; read-out: EC/IC50 (M) Binding assay: IC50, HLA-A*11:01.
As to VVGARGVGK, the IC50 is 0.000157 M.

Regarding `CC(C)[C@H](N)C(=O)N[C@H](C(=O)NCC(=O)N[C@@H](C)C(=O)N[C@@H](CO)C(=O)NCC(=O)N[C@H](C(=O)NCC(=O)N[C@@H](CCCCN)C(=O)O)C(C)C)C(C)C`, the IC50 turned out to be 1.27e-05 M.

For the compound `CC(C)[C@H](N)C(=O)N[C@H](C(=O)N[C@H](C(=O)NCC(=O)N[C@@H](C)C(=O)N[C@@H](CO)C(=O)NCC(=O)N[C@H](C(=O)NCC(=O)N[C@@H](CCCCN)C(=O)O)C(C)C)C(C)C)C(C)C`, the IC50 came to 1.02e-05 M.

A further assay relates to transgenic humanized HLA-A2/DR1 mice. The assay can be described thus: Immunization of transgenic humanized HLA-A2/DR1 mice, ex vivo splenocyte stimulation. Type of assay: in vivo, mouse. The settings on record: 100 μg peptide s.c. days 0, 14, 21 with 25 μg Poly I:C and 10 μg Pan-DR peptide; splenocytes one week after third injection restimulated overnight with 10 μg/mL peptide, intracellular IFN-γ; 5 mice.
In the case of “MTEYKL L VVGA V GV GKSALTIQLIQNHFVDE [31-mer G12V peptide]”, the “CD8+ T cells in the spleen reacting to the minimal L2-9-mer peptide” value is listed as “about 8%”.

Staying with this assay, now noted: same immunization; HLA-A*02:01-positive/G12V-positive CFPAC-1, overnight incubation, intracellular IFN-γ.
For “MTEYKL L VVGA V GV GKSALTIQLIQNHFVDE [31-mer G12V peptide]”, the “Recognition of CFPAC-1 cells by CD8+ T cells of immunized mice” value is “recognized”.

Still in this assay, the particulars now being: same immunization; ex vivo restimulation with WT-9-mer.
For the compound “MTEYKL L VVGA V GV GKSALTIQLIQNHFVDE [31-mer G12V peptide]”, the “Recognition of the wild-type peptide by CD8+ T cells of immunized mice” value is “did not recognize”.

Still in this assay, the particulars now being: same immunization; ex vivo restimulation with original 9-mer.
As for “MTEYKL L VVGA V GV GKSALTIQLIQNHFVDE [31-mer G12V peptide]”, the “Share of L2-9-mer-reactive CD8+ T cells that also reacted to the original 9-mer epitope” value is “half”.
